Laboratory results: patent publication US11639350B2, “Heteroaryldihydropyrimidine derivatives and methods of treating hepatitis B infections” (Janssen Pharmaceutica NV, priority 2018, dated 2023)

Columns and labels:
HBV = HBV inhibitory activity: HBV DNA in the culture medium of HepG2.2.15 cells by q-PCR; format: cell-based; conditions: Hepatitis B virus, HepG2.2.15, 144 h, HepG2.2.15 cells, 6 days of compound treatment, HBV DNA in culture medium by q-PCR, highest concentration 10 μM; read-out: EC50
Experimental: (§1) HBV replication inhibition by the compounds of this invention as well as cytotoxicity determination was determined in cells infected or transfected with HBV, or cells with stably integrated HBV, such as HepG2.2.15 cells (Sells et al. 1987). The method used herein is as follows.
(§2) The HepG2.2.15 cells were seeded into 96-well plate in 2% FBS (Fetal bovine serum) culture medium at the density of 40,000 cells/well and 5,000 cells/well for HBV inhibitory activity and cytotoxicity determination, respectively. After seeding, the cell plates were incubated at 37° C., 5% CO2 overnight. The next day, medium containing compounds were added to treat the cells for 6 days with medium refreshed once in the middle of the treatment. Eight dose points with 3 folds dilution of each compound were adopted and the highest concentration of the compounds was 10 μM and 100 μM for HBV inhibitory activity and cytotoxicity determination, respectively.
The HBV DAN change in the cell culture medium induced by the compounds was measured by q-PCR (quantitative polymerase chain reaction) method. The HBV DNA in the culture medium was extracted using QIAamp 96 DNA Blood Kit according to the manual and then quantified by q-PCR using the primers and probe in the table below: […]
(§3) EC50 and CC50 values are calculated by the GraphPad Prism software and are averages where multiple measurements were made. EC50 values for the other exemplified compounds were either not measured or higher than 1 μM.

[1] = Cytotoxicity determination in HepG2.2.15 cells (CCK-8); format: cell-based; conditions: human, 6 days of compound treatment, CCK-8, highest concentration 100 μM
Experimental: as §1, §2
After 6 days of compounds treatment, 20 μl CCK-8 (Cell Counting Kit-8 (Tianjin Biolite company)) reagents were added to each well of cytotoxicity assay plates, the plate was incubated at 37° C., 5% CO2 for 2.5 hours and the absorbance at 450 nm wavelength was measured, at the same time the absorbance at 630 nm wavelength was read as reference.
as §3

SMILES | EC50 (HBV) [nM] | CC50 at 6 days [1] [µM]
COC(=O)C1=C(C2CC3CCC(C2)N3S(C)(=O)=O)NC(c2nccs2)=NC1c1ccc(F)cc1Cl (single isomer, unassigned) [Compound 38B, 4-(2-Chloro-4-fluoro-phenyl)-6-(8-methanesulfonyl-8-aza-bicyclo[3.2.1]oct-3-yl)-2-thiazol-2-yl-1,4-dihydro-pyrimidine-5-carboxylic Acid Methyl Ester] | 239 | 34.1
CCOC(=O)C1=C([C@H]2C[C@@H](NS(C)(=O)=O)C2(C)C)NC(c2nccs2)=NC1c1ccc(F)cc1Cl (single isomer, unassigned) [Compound 437A, (cis)-Ethyl 4-(2-chloro-4-fluorophenyl)-6-(2,2-dimethyl-3-(methylsulfonamido)cyclobutyl)-2-(thiazol-2-yl)-1,4-dihydropyrimidine-5-carboxylate] | 600 | 10.4
COC(=O)C1=C([C@H]2CC[C@H](C(=O)O)CC2)NC(c2nccs2)=NC1c1cccc(F)c1Cl (stereo partly drawn) [Compound 17, trans-4-(6-(2-Chloro-3-fluorophenyl)-5-(methoxycarbonyl)-2-(thiazol-2-yl)-3,6-dihydropyrimidin-4-yl)cyclohexanecarboxylic Acid] | 300 | 93.8
COC(=O)C1=C([C@H]2CC[C@H](S(=O)(=O)N3CCCC3)CC2)NC(c2nccs2)=NC1c1ccc(F)c(F)c1Cl (single isomer, unassigned) [Compound 169A, (trans)-Methyl 4-(2-chloro-3,4-difluorophenyl)-6-(4-(pyrrolidin-1-ylsulfonyl)cyclohexyl)-2-(thiazol-2-yl)-1,4-dihydropyrimidine-5-carboxylate] | 56 | > 100
CCOC(=O)C1=C([C@H]2CCC[C@H](C(=O)O)CC2)NC(c2nccs2)=NC1c1ccc(F)c(F)c1Cl (single isomer, unassigned) [Compound 302A, (trans)-4-(−6-(2-Chloro-3,4-difluorophenyl)-5-(ethoxycarbonyl)-2-(thiazol-2-yl)-3,6-dihydropyrimidin-4-yl)cycloheptanecarboxylic Acid] | 24 | 15.2
COC(=O)C1=C(C2CCN(S(=O)(=O)c3cnn(CCCCC(=O)O)c3)CC2)NC(c2nccs2)=NC1c1ccc(F)cc1Cl (centres unmarked) [Compound 471, 5-(4-((4-(6-(2-Chloro-4-fluorophenyl)-5-(methoxycarbonyl)-2-(thiazol-2-yl)-3,6-dihydropyrimidin-4-yl)piperidin-1-yl)sulfonyl)-1H-pyrazol-1-yl)pentanoic Acid] | 53 | 32.3
CCOC(=O)C1=C(C2CCN(S(=O)(=O)CC3CC(C(=O)O)C3)CC2)NC(c2nccs2)=NC1c1ccc(F)c(F)c1Cl (centres unmarked) [Compound 480B, 3-(((4-(6-(2-Chloro-3,4-difluorophenyl)-5-(ethoxycarbonyl)-2-(thiazol-2-yl)-3,6-dihydropyrimidin-4-yl)piperidin-1-yl)sulfonyl)methyl)cyclobutanecarboxylic Acid] | 22 | 9.9
CCOC(=O)C1=C([C@@H]2C[C@H](NS(C)(=O)=O)CO2)NC(c2nccs2)=NC1c1cccc(F)c1Cl (relative stereo) [Compound 261, (cis)-Ethyl 4-(2-chloro-3-fluorophenyl)-6-(4-(methylsulfonamido)-tetrahydrofuran-2-yl)-2-(thiazol-2-yl)-1,4-dihydropyrimidine-5-carboxylate] | 142 | 37.5
CCOC(=O)C1=C(C2CCN(S(C)(=O)=O)CC2)NC(c2nccs2)=NC1c1cccc(F)c1Cl (centres unmarked) [Compound 96B, Ethyl 4-(2-chloro-3-fluorophenyl)-6-(1-(methylsulfonyl)piperidin-4-yl)-2-(thiazol-2-yl)-1,4-dihydropyrimidine-5-carboxylate] | 130 | 21.2
COC(=O)C1=C(C23CC(C(=O)O)(C2)C3)NC(c2nccs2)=NC1c1ccc(F)cc1Cl (centres unmarked) [Compound 258B, 3-(6-(2-Chloro-4-fluorophenyl)-5-(methoxycarbonyl)-2-(thiazol-2-yl)-3,6-dihydropyrimidin-4-yl)bicyclo[1.1.1]pentane-1-carboxylic Acid] | 401 | 27.4
COC(=O)C1=C([C@H]2CC[C@H](C(=O)OC)CC2)NC(c2nccs2)=NC1c1cccc(F)c1Cl (single isomer, unassigned) [Compound 16X, Methyl 4-(2-chloro-3-fluorophenyl)-6-(trans-4-(methoxycarbonyl)-cyclohexyl)-2-(thiazol-2-yl)-1,4-dihydropyrimidine-5-carboxylate] | 49 | 29.3
COC(=O)C1=C(C2CCN(S(C)(=O)=O)CC2)NC(c2nccs2)=NC1c1ccc(Cl)cc1F (centres unmarked) [Compound 97B, 4-(4-Chloro-2-fluoro-phenyl)-6-(1-methanesulfonyl-pip-eridin-4-yl)-2-thiazol-2-yl-1,4-dihydro-pyrimidine-5-carboxylic Acid Methyl Ester] | 47 | > 100
COC(=O)C1=C(C2COC2)NC(c2nccs2)=NC1c1ccc(F)cc1Cl (racemic) [Compound 217, Methyl 4-(2-chloro-4-fluorophenyl)-6-(oxetan-3-yl)-2-(thiazol-2-yl)-1,4-dihydropyrimidine-5-carboxylate] | 511 | 29.6
COC(=O)C1=C([C@H]2CC[C@H](N(CC#N)S(C)(=O)=O)CC2)NC(c2nccs2)=NC1c1ccc(F)cc1Cl (single isomer, unassigned) [Compound 448A, (trans)-Methyl 4-(2-chloro-4-fluorophenyl)-6-(4-(N-(cyanomethyl)methylsulfonamido)cyclohexyl)-2-(thiazol-2-yl)-1,4-dihydropyrimidine-5-carboxylate] | 8 | > 100
CCOC(=O)C1=C(C2CCN(S(=O)(=O)[C@H]3C[C@H](C(=O)O)C3)CC2)NC(c2nccs2)=NC1c1ccc(F)cc1Br (stereo partly drawn) [Compound 333B, (trans)-3-((4-(6-(2-bromo-4-fluorophenyl)-5-(ethoxycarbonyl)-2-(thiazol-2-yl)-3,6-dihydropyrimidin-4-yl)piperidin-1-yl)sulfonyl)cyclobutane-1-carboxylic Acid] | 35 | 33.1
COC(=O)C1=C(C2CCC(N(C)C(C)=O)C2)NC(c2nccs2)=NC1c1cccc(F)c1Cl (centres unmarked) [Compound 170, Methyl 4-(2-chloro-3-fluorophenyl)-6-(3-(N-methylacetamido)cyclopentyl)-2-(thiazol-2-yl)-1,4-dihydropyrimidine-5-carboxylate] | 533 | 14.9
COC(=O)C1=C(C2CCN(C)C2)NC(c2nccs2)=NC1c1ccc(F)cc1Cl (single isomer, unassigned) [Compound 207C, methyl 4-(2-chloro-4-fluorophenyl)-6-(−1-methylpyrrolidin-3-yl)-2-(thiazol-2-yl)-1,4-dihydropyrimidine-5-carboxylate] | 753 | > 20
COC(=O)C1=C(C2CCN(S(C)(=N)=O)CC2)NC(c2nccs2)=NC1c1ccc(F)cc1Cl (single isomer, unassigned) [Compound 401Y, Methyl 4-(2-chloro-4-fluorophenyl)-6-(1-(S-methylsulfonimidoyl)piperidin-4-yl)-2-(thiazol-2-yl)-1,4-dihydropyrimidine-5-carboxylate] | 24 | 60
COC(=O)C1=C(C2CCN(S(=O)(=O)CC34CC(C(=O)O)(C3)C4)CC2)NC(c2nccs2)=NC1c1ccc(F)c(F)c1Cl (centres unmarked) [Compound 456, 3-(((4-(6-(2-Chloro-3,4-difluorophenyl)-5-(methoxycarbonyl)-2-(thiazol-2-yl)-3,6-dihydropyrimidin-4-yl)piperidin-1-yl)sulfonyl)methyl)bicyclo[1.1.1]pentane-1-carboxylic Acid] | 43 | 19.5
COC(=O)C1=C(C2CCN(S(=O)(=O)CC(=O)O)CC2)NC(c2nccs2)=NC1c1ccc(F)cc1Cl (centres unmarked) [Compound 107, 2-((4-(6-(2-Chloro-4-fluorophenyl)-5-(methoxycarbonyl)-2-(thiazol-2-yl)-3,6-dihydropyrimidin-4-yl)piperidin-1-yl)sulfonyl)acetic Acid] | 248 | 51.4
COC(=O)C1=C(C2CN(S(=O)(=O)c3ccccc3)C2)NC(c2nccs2)=NC1c1ccc(F)cc1Cl (single isomer, unassigned) [Compound 130A, 6-(1-Benzenesulfonyl-azetidin-3-yl)-4-(2-chloro-4-fluoro-phenyl)-2-thiazol-2-yl-1,4-dihydro-pyrimidine-5-carboxylic acid methyl ester] | 317 | > 10
COC(=O)C1=C(C2CCNC(=O)C2)NC(c2nccs2)=NC1c1ccc(F)cc1Cl (centres unmarked) [Compound 3, Methyl 4-(2-chloro-4-fluorophenyl)-6-(2-oxopiperidin-4-yl)-2-(thiazol-2-yl)-1,4-dihydro-pyrimidine-5-carboxylate] | 38 | 32.8
